{"source": "patent US20080078408A1", "about": "“URETHRAL CONDOMS AND LIQUID FEMALE CONDOMS” (priority 2005, published 2008)", "key": {"sperms": {"system": "sperms", "test": "Spermicidal test: semen on a slide glass mixed with a drop of liquid, observed with an optical microscope", "assay_type": "cell-based", "excerpt": "The present inventor discovered a surprising fact for the first time that distilled water is an excellent spermicide.\nEXPERIMENT 1: The fact that distilled water is an excellent spermicide was proven experimentally as follows: (1) One drop of semen was spread on a slide glass with a cotton swab and active movements of sperms were confirmed. (2) Upon mixing with a drop of distilled water, 100% of sperms stood still immediately. […] All sperms might be dead by explosive expansion of the sperm cell. While not wishing to be bound by any particular theory, the inventor believes that this is due to a lot of water smeared into the cell due to the difference in osmotic pressure between the cell and distilled water.\n(3) Upon decreasing the viscosity by adding several drops of saline solution, the sperms regained their original activity.\nEXPERIMENT 4: The fact that polymer solutions made from distilled water and water-soluble polymers exterminated sperms was verified experimentally as follows: (1) One drop of semen was spread on a slide glass with a cotton swab and active movements of sperms were confirmed. (2) Upon mixing with a drop of water-soluble polymer solution, all sperms came to a standstill without any movement in their heads or tails. […]"}, "[1]": {"test": "Physical blocking wall test: pigments and dye rubbed on coated, incised swine vaginal segments, then rinsed and scrubbed", "excerpt": "EXPERIMENT 6: Two pigments whose particle size distributions correspond to sizes of STD-causing germs including HIV (diameter=125 nm) were chosen. The blue pigment (PIG-1) had the particle size distribution of 100-20,000 nm, while the violet pigment (PIG-2) had the particle size distribution of 30-500 nm. For the purpose of comparison, a blue dye ink (DYE) (molecular diameter=2.7 nm) was used as well. Instead of the human vagina, the swine vagina was used. […] Then, the vaginal segments in the left column were wetted with water, while those in the second, the third, the fourth and the fifth column were applied with corn syrup (SYRUP, 55% maltose), a composition made from polyvinyl alcohol (PVA-gel), a composition made from sodium carboxymethyl cellulose (SCMC-gel) and a composition made from hydroxyethyl cellulose (HEC-gel), respectively, as shown in FIG. 2B. After that, the blue pigment (PIG-1) was applied on the vaginal segments in the upper row, while the violet pigment (PIG-2) and the blue dye ink (DYE) were applied on the vaginal segments in the middle and the lower row, respectively, as shown in FIG. 2C. The pigments and the dye ink applied on the vaginal segments were rubbed 50 times violently with the index finger being pressed in an attempt to simulate the frictional movement of coitus. Thereafter that, they were scrubbed off and cleansed out with the vaginal scrubbing sponge of the present invention as shown in FIG. 6."}}, "data": [{"smiles": "O", "note": "[distilled water]", "values": [{"measurement": "sperm activity upon later addition of saline solution", "setting": "sperms; saline solution added after mixing with the liquid", "value": "failed to show any activity"}, {"measurement": "sperms stood still immediately upon mixing", "setting": "sperms; semen on slide glass mixed with drop(s) of the liquid", "value": 100, "unit": "%"}]}, {"smiles": "O", "note": "[water]", "values": [{"measurement": "pigments left on incisions", "setting": "[1]; incisions, after rinsing and scrubbing", "value": "remained heavily"}, {"measurement": "blue dye ink (molecular diameter 2.7 nm) left after being rinsed and scrubbed", "setting": "[1]; intact vaginal surfaces and incisions", "value": "remained heavily"}, {"measurement": "pigments (PIG-1, PIG-2; 30-20,000 nm) left on vaginal segments after rinsing", "setting": "[1]; intact vaginal surfaces and incisions, rubbed 50 times, rinsed with running water, then scrubbed", "value": "still remained"}]}]}
